Earlier results, collected in PubChem BioAssay AID1259409 (Chemical Carcinogenesis Research Information System (CCRIS), 2018).

System: rodent chemically induced tumor inhibition, incidence and multiplicity
Assay: CCRIS tumor inhibitor studies
Settings: Promoter: NONE USED

CCC(=O)O[C@H]1CC[C@H]2[C@@H]3CCC4=CC(=O)CC[C@]4(C)[C@H]3CC[C@]12C
tumour outcome (control, treated, inhibition, significance) (Carcinogen: CADMIUM CHLORIDE, 10108-64-2, Dose [Inhibitor]: APPROXIMATELY NORMAL CIRCULATING LEVELS OF TESTOSTERONE BEGINNING 2 WK PRIOR TO CARCINOGEN TREATMENT, IMPLANTS REPLACED, Route [Inhibitor]: SUBCUTANEOUS IMPLANT, Species: RAT, Strain/Sex: F344/MALE, Target Tissue: Type of Lesion: HEMATOPOIETIC SYSTEM: LEUKEMIA, Dose [Carcinogen]: 20 UMOL 1/WK FOR 5 WK): 9/40 (23%), 10/37 (27%), -17%, not significant | tumour outcome (control, treated, inhibition, significance) (Carcinogen: CADMIUM CHLORIDE, 10108-64-2, Dose [Inhibitor]: APPROXIMATELY NORMAL CIRCULATING LEVELS OF TESTOSTERONE BEGINNING 2 WK PRIOR TO CARCINOGEN TREATMENT, IMPLANTS REPLACED, Route [Inhibitor]: SUBCUTANEOUS IMPLANT, Species: RAT, Strain/Sex: F344/MALE, Target Tissue: Type of Lesion: INJECTION SITE: SARCOMA, Dose [Carcinogen]: 20 UMOL 1/WK FOR 5 WK): 28/40 (70%), 22/37 (59%), 16%, not significant | tumour outcome (control, treated, inhibition, significance) (Carcinogen: CADMIUM CHLORIDE, 10108-64-2, Dose [Inhibitor]: APPROXIMATELY NORMAL CIRCULATING LEVELS OF TESTOSTERONE BEGINNING 2 WK PRIOR TO CARCINOGEN TREATMENT, IMPLANTS REPLACED, Route [Inhibitor]: SUBCUTANEOUS IMPLANT, Species: RAT, Strain/Sex: F344/MALE, Target Tissue: Type of Lesion: TESTES: TUMOR, Dose [Carcinogen]: 20 UMOL 1/WK FOR 5 WK): 34/40 (85%), 0/37 (0%), 100%, p<0.05 | tumour outcome (control, treated, inhibition, significance) (Carcinogen: N-NITROSOBIS(2-OXOPROPYL)AMINE, 60599-38-4, Dose [Inhibitor]: 0, 40 MG PELLET INSERTED IN THE INTERSCAPULAR REGION AND REPLACED EVERY 6 WK FOR LIFE BEGINNING POST LAST CARCINOGEN DOS, Route [Inhibitor]: SUBCUTANEOUS, Species: RAT, Strain/Sex: MRC/MALE, Target Tissue: Type of Lesion: COLON: TUMOR, Dose [Carcinogen]: 10 MG/KG 1/WK FOR 20 WK): 2/26 (8%), 1/24 (4%), 50%, not calculated | tumour outcome (control, treated, inhibition, significance) (Carcinogen: N-NITROSOBIS(2-OXOPROPYL)AMINE, 60599-38-4, Dose [Inhibitor]: 0, 40 MG PELLET INSERTED IN THE INTERSCAPULAR REGION AND REPLACED EVERY 6 WK FOR LIFE BEGINNING POST LAST CARCINOGEN DOS, Route [Inhibitor]: SUBCUTANEOUS, Species: RAT, Strain/Sex: MRC/MALE, Target Tissue: Type of Lesion: RECTUM: TUMOR, Dose [Carcinogen]: 10 MG/KG 1/WK FOR 20 WK): 9/26 (35%), 14/24 (58%), -66%, not calculated | tumour outcome (control, treated, inhibition, significance) (Carcinogen: N-NITROSOBIS(2-OXOPROPYL)AMINE, 60599-38-4, Dose [Inhibitor]: 0, 40 MG PELLET INSERTED IN THE INTERSCAPULAR REGION AND REPLACED EVERY 6 WK FOR LIFE BEGINNING WITH FIRST CARCINOGEN DO, Route [Inhibitor]: SUBCUTANEOUS, Species: RAT, Strain/Sex: MRC/MALE, Target Tissue: Type of Lesion: COLON: TUMOR, Dose [Carcinogen]: 10 MG/KG 1/WK FOR 20 WK): 2/26 (8%), 0/29 (0%), 100%, not calculated | tumour outcome (control, treated, inhibition, significance) (Carcinogen: N-NITROSOBIS(2-OXOPROPYL)AMINE, 60599-38-4, Dose [Inhibitor]: 0, 40 MG PELLET INSERTED IN THE INTERSCAPULAR REGION AND REPLACED EVERY 6 WK FOR LIFE BEGINNING WITH FIRST CARCINOGEN DO, Route [Inhibitor]: SUBCUTANEOUS, Species: RAT, Strain/Sex: MRC/MALE, Target Tissue: Type of Lesion: RECTUM: TUMOR, Dose [Carcinogen]: 10 MG/KG 1/WK FOR 20 WK): 9/26 (35%), 0/29 (0%), 100%, p<0.005 | tumour outcome (control, treated, inhibition, significance) (Carcinogen: N-NITROSOBIS(2-OXOPROPYL)AMINE, 60599-38-4, Dose [Inhibitor]: 0, 40 MG PELLET INSERTED IN THE INTERSCAPULAR REGION AND REPLACED EVERY 6 WK FOR LIFE BEGINNING WITH FIRST CARCINOGEN DO, Route [Inhibitor]: SUBCUTANEOUS, Species: RAT, Strain/Sex: MRC/MALE, Target Tissue: Type of Lesion: RECTUM: TUMOR, Dose [Carcinogen]: 20 MG/KG 1/D FOR 3 D): 6/13 (46%), 0/25 (0%), 100%, p<0.005

COc1ccc(O)cc1
tumour outcome (control, treated, inhibition, significance) (Carcinogen: BENZO[A]PYENE, 50-32-8, Dose [Inhibitor]: 0.028 MMOL/G DIET DAILY FOR 6 WK STARTING 14 D PRIOR TO THE FIRST UNTIL 1 D AFTER LAST CARCINOGEN DOSE FOLLOWED BY AN OB, Route [Inhibitor]: ORAL, Species: MOUSE, Strain/Sex: STRAIN-A/FEMALE, Target Tissue: Type of Lesion: LUNG: ADENOMA, Dose [Carcinogen]: 3 MG IN 0.2 ML COTTONSEED OIL GIVEN 3X AT 2 WK INTERVALS): 100%, 100%, 0%, not significant | tumour outcome (control, treated, inhibition, significance) (Carcinogen: BENZO[A]PYENE, 50-32-8, Dose [Inhibitor]: 0.028 MMOL/G DIET DAILY STARTING 2 WK AFTER FINAL CARCINOGEN DOSE THROUGH THE END OF THE STUDY (STUDY DURATION: 14 WK), Route [Inhibitor]: ORAL, Species: MOUSE, Strain/Sex: ICR/FEMALE, Target Tissue: Type of Lesion: FORESTOMACH: PAPILLOMA, Dose [Carcinogen]: 1.5 MG IN 0.2 ML CORN OIL GIVEN 2/WK FOR 4 WK): 97%, 100%, -3%, not significant | tumour outcome (control, treated, inhibition, significance) (Carcinogen: BENZO[A]PYRENE, 50-32-8, Dose [Inhibitor]: 0, 3.3 UMOL/G DIET BEGINNING 1 WK PRIOR TO CARCINOGEN TREATMENT AND CONTINUING FOR 1 WK POST CARCINOGEN TREATMENT FOLLOW, Route [Inhibitor]: ORAL, Species: MOUSE, Strain/Sex: CD-1/FEMALE, Target Tissue: Type of Lesion: FORESTOMACH: PAPILLOMA, Dose [Carcinogen]: 1 MG IN 0.2 ML CORN OIL 2/WK FOR 4 WK): 85%, 46%, 46%, p<0.01 | tumour outcome (control, treated, inhibition, significance) (Carcinogen: BENZO[A]PYRENE, 50-32-8, Dose [Inhibitor]: 0.03 MMOL/G OF DIET DAILY STARTING 7 D BEFORE AND CONTINUING THROUGH 3 D AFTER CARCINOGEN TREATMENT FOLLOWED BY OBSERVAT, Route [Inhibitor]: ORAL, Species: MOUSE, Strain/Sex: ICR/FEMALE, Target Tissue: Type of Lesion: FORESTOMACH: NEOPLASM, Dose [Carcinogen]: 1 MG IN 0.2 ML CORN OIL 2/WK FOR 4 WK): 100%, 65%, 35%, p 0.053 | tumour outcome (control, treated, inhibition, significance) (Carcinogen: BETA-PROPIOLACTONE, 57-57-8, Dose [Inhibitor]: 4.2 MG/G DIET DAILY FOR 14 WK STARTING 12 D PRIOR TO FIRST CARCINOGEN DOSE UNTIL 1 D AFTER LAST CARCINOGEN DOSE FOLLOWED, Route [Inhibitor]: ORAL, Species: MOUSE, Strain/Sex: ICR/FEMALE, Target Tissue: Type of Lesion: FORESTOMACH: PAPILLOMA OR CARCINOMA, Dose [Carcinogen]: 2 MG IN 0.1 ML PROPYLENE GLYCOL 2/WK FOR 12 WK): 100%, 41%, 59%, p<0.001 | tumour outcome (control, treated, inhibition, significance) (Carcinogen: BETA-PROPIOLACTONE, 57-57-8, Dose [Inhibitor]: 5.2 MG IN 0.1 ML PROPYLENE GLYCOL 2/WK FOR 12 WK GIVEN 1 HR PRIOR TO EACH CARCINOGEN ADMINISTRATION FOLLOWED BY AN OBSER, Route [Inhibitor]: GAVAGE, Species: MOUSE, Strain/Sex: ICR/FEMALE, Target Tissue: Type of Lesion: FORESTOMACH: PAPILLOMA OR CARCINOMA, Dose [Carcinogen]: 2 MG IN 0.1 ML PROPYLENE GLYCOL 2/WK FOR 12 WK): 100%, 61%, 39%, p<0.001 | tumour outcome (control, treated, inhibition, significance) (Carcinogen: BETA-PROPIOLACTONE, 57-57-8, Dose [Inhibitor]: 5.2 MG IN 0.1 ML PROPYLENE GLYCOL 2/WK FOR 12 WK GIVEN 4 HR PRIOR TO EACH CARCINOGEN ADMINISTRATION FOLLOWED BY AN OBSER, Route [Inhibitor]: GAVAGE, Species: MOUSE, Strain/Sex: ICR/FEMALE, Target Tissue: Type of Lesion: FORESTOMACH: PAPILLOMA OR CARCINOMA, Dose [Carcinogen]: 2 MG IN 0.1 ML PROPYLENE GLYCOL 2/WK FOR 12 WK): 97%, 47%, 52%, p<0.001

c1ccc2c(c1)-c1cccc3cccc-2c13
tumour outcome (control, treated, inhibition, significance) (Carcinogen: BENZO[A]PYRENE, 50-32-8, Dose [Inhibitor]: 40 UG IN 0.1 ML ACETONE 3/WK ADMINISTERED SIMULTANEOUSLY WITH CARCINOGEN FOR DURATION OF STUDY (STUDY DURATION: 440 D), Route [Inhibitor]: DERMAL, Species: MOUSE, Strain/Sex: ICR/FEMALE, Target Tissue: Type of Lesion: SKIN: PAPILLOMA, Dose [Carcinogen]: 5 UG IN 0.1 ML ACETONE 3/WK FOR DURATION OF STUDY): 16/50 (32%), 39/50 (78%), -144%, not calculated | tumour outcome (control, treated, inhibition, significance) (Carcinogen: BENZO[A]PYRENE, 50-32-8, Dose [Inhibitor]: 40 UG IN 0.1 ML ACETONE 3/WK ADMINISTERED SIMULTANEOUSLY WITH CARCINOGEN FOR DURATION OF STUDY (STUDY DURATION: 440 D), Route [Inhibitor]: DERMAL, Species: MOUSE, Strain/Sex: ICR/FEMALE, Target Tissue: Type of Lesion: SKIN: SQUAMOUS CARCINOMA, Dose [Carcinogen]: 5 UG IN 0.1 ML ACETONE 3/WK FOR DURATION OF STUDY): 12/50 (24%), 37/50 (74%), -208%, not calculated
